Results: ChEMBL document CHEMBL1201862, “PubChem BioAssay data set” (2004)
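A five-concentration, 48-hour dose response in 96-well plates underlies each endpoint, interpolated linearly between surrounding concentrations. GI50 marks 50% less growth.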 The source made the active and inactive calls. Cut-off read from the data, not from the text of the source: active = GI50 up to about 1.1 µM and inactive = higher.

Tests used:
Test in all cases: NCI tumour cell line growth inhibition, 48 h
NCI-H522 = test system: NCI-H522
NCI-H226 = test system: NCI-H226
KM12 = test system: KM12
SW-620 = test system: SW-620
UACC-62 = test system: UACC-62
OVCAR-4 = test system: OVCAR-4
U-251 = test system: U-251
K562 = test system: K562
MCF7 = test system: MCF7
DU-145 = test system: DU-145
RPMI-8226 = test system: RPMI-8226
T47D = test system: T47D
M14 = test system: M14
OVCAR-3 = test system: OVCAR-3
IGROV-1 = test system: IGROV-1
ACHN = test system: ACHN
SNB-19 = test system: SNB-19
Malme-3M = test system: Malme-3M
786-0 = test system: 786-0
A498 = test system: A498

Measured: GI50

COc1cc(OC)c2c(c1)OC(c1ccccc1)CC2=O (stereo unspecified) [DIMETHYLPINOCEMBRIN]
inactive: NCI-H522 > 10 µM | NCI-H226 > 10 µM | KM12 > 10 µM | SW-620 > 10 µM | UACC-62 > 10 µM | OVCAR-4 > 10 µM | U-251 > 10 µM | K562 > 10 µM | MCF7 > 10 µM | DU-145 > 10 µM | RPMI-8226 > 10 µM | T47D > 10 µM | M14 > 10 µM | OVCAR-3 > 10 µM | IGROV-1 > 10 µM | ACHN > 10 µM | SNB-19 > 10 µM | Malme-3M > 10 µM | 786-0 > 10 µM

O=C(CC(C(=O)c1cccs1)c1cccs1)c1ccsc1 (stereo unspecified)
inactive: NCI-H226 > 100 µM | KM12 34 µM | SW-620 44.1 µM | UACC-62 37.5 µM | OVCAR-4 67.1 µM | U-251 41.6 µM | K562 46 µM | MCF7 32.8 µM | DU-145 > 100 µM | RPMI-8226 36.1 µM | T47D 39.6 µM | M14 38.2 µM | IGROV-1 > 100 µM | ACHN 67 µM | SNB-19 75.2 µM | Malme-3M 40.8 µM | 786-0 50.5 µM | A498 49.7 µM

O=C(O)CSc1nnc(COc2ccc(Cl)cc2)n1-c1ccccc1
inactive: NCI-H522 > 100 µM | NCI-H226 > 100 µM | KM12 > 100 µM | SW-620 > 100 µM | UACC-62 > 100 µM | OVCAR-4 > 100 µM | U-251 > 100 µM | K562 > 100 µM | MCF7 > 100 µM | DU-145 > 100 µM | T47D > 100 µM | M14 > 100 µM | OVCAR-3 > 100 µM | IGROV-1 > 100 µM | ACHN > 100 µM | SNB-19 > 100 µM | Malme-3M > 100 µM | 786-0 > 100 µM | A498 > 100 µM

COC(=O)c1ccc(/C=C(\c2ccc([N+](=O)[O-])o2)S(=O)(=O)c2ccc(NC(C)=O)cc2)o1
inactive: NCI-H522 2.03 µM | NCI-H226 3.04 µM | KM12 13.4 µM | SW-620 3.63 µM | UACC-62 2 µM | OVCAR-4 2.22 µM | U-251 14.1 µM | K562 4.15 µM | MCF7 5.36 µM | DU-145 10.1 µM | RPMI-8226 1.22 µM | T47D 18.4 µM | M14 4.14 µM | OVCAR-3 5.9 µM | IGROV-1 12.9 µM | ACHN 3.09 µM | SNB-19 16.9 µM | Malme-3M 2.49 µM | 786-0 3.43 µM

COc1ccc(CC2c3cc(OC)c(OC)c(OC)c3CC[N+]2(C)C)cc1Oc1ccc(CC2c3cc4c(c(OC)c3CC[N+]2(C)C)OCO4)cc1 (stereo unspecified)
inactive: NCI-H522 > 100 µM | NCI-H226 > 100 µM | KM12 > 100 µM | SW-620 > 100 µM | UACC-62 > 100 µM | OVCAR-4 > 100 µM | U-251 > 100 µM | K562 > 100 µM | MCF7 96.2 µM | DU-145 > 100 µM | T47D > 100 µM | M14 > 100 µM | IGROV-1 > 100 µM | ACHN > 100 µM | SNB-19 > 100 µM | Malme-3M > 100 µM | 786-0 > 100 µM | A498 > 100 µM

Cc1cc(=O)oc2c(CNC(CC(C)C)C(=O)O)c(O)ccc12 (stereo unspecified)
inactive: NCI-H522 > 100 µM | NCI-H226 > 100 µM | KM12 > 100 µM | SW-620 > 100 µM | UACC-62 > 100 µM | OVCAR-4 > 100 µM | U-251 > 100 µM | K562 > 100 µM | MCF7 > 100 µM | DU-145 > 100 µM | RPMI-8226 > 100 µM | T47D > 100 µM | M14 > 100 µM | OVCAR-3 > 100 µM | IGROV-1 > 100 µM | ACHN > 100 µM | SNB-19 > 100 µM | Malme-3M 87.5 µM | 786-0 > 100 µM

O=c1cccccc1O [TROPOLONE]
inactive: NCI-H522 33.3 µM | NCI-H226 > 100 µM | KM12 > 100 µM | SW-620 45.5 µM | UACC-62 96.6 µM | OVCAR-4 94 µM | K562 35.3 µM | MCF7 44 µM | DU-145 > 100 µM | RPMI-8226 86.9 µM | T47D 52.8 µM | M14 > 100 µM | OVCAR-3 34 µM | IGROV-1 > 100 µM | ACHN > 100 µM | SNB-19 > 100 µM | Malme-3M > 100 µM | 786-0 55.3 µM

CC(C)[Si](OC12CCC(CC1O)CC2C(=O)O)(C(C)C)C(C)C (stereo unspecified)
inactive: NCI-H226 12 µM | KM12 12.4 µM | SW-620 14.9 µM | UACC-62 14 µM | OVCAR-4 12.6 µM | U-251 14.6 µM | K562 31.6 µM | MCF7 11.3 µM | DU-145 14.2 µM | RPMI-8226 10.1 µM | T47D 13.9 µM | M14 15.8 µM | OVCAR-3 14.8 µM | ACHN 15.7 µM | SNB-19 15.6 µM | 786-0 11 µM | A498 15.3 µM

Brc1ccc(-c2ccc(-c3ccc(Br)s3)s2)s1
inactive: NCI-H226 > 100 µM | KM12 > 100 µM | SW-620 > 100 µM | UACC-62 > 100 µM | OVCAR-4 > 100 µM | U-251 > 100 µM | K562 > 100 µM | MCF7 > 100 µM | DU-145 > 100 µM | RPMI-8226 > 100 µM | T47D > 100 µM | M14 > 100 µM | OVCAR-3 > 100 µM | IGROV-1 > 100 µM | ACHN > 100 µM | SNB-19 > 100 µM | 786-0 > 100 µM | A498 > 100 µM

Nc1nc(Nc2ccccc2)sc1C(=O)c1c[nH]c2ccccc12
inactive: NCI-H226 10.6 µM | KM12 10.2 µM | SW-620 11.1 µM | UACC-62 14.8 µM | OVCAR-4 10.3 µM | U-251 10.7 µM | K562 4.06 µM | MCF7 11.8 µM | DU-145 9.89 µM | RPMI-8226 10.7 µM | T47D 6.49 µM | M14 8 µM | OVCAR-3 13.4 µM | IGROV-1 12.9 µM | ACHN 15.6 µM | SNB-19 3.28 µM | Malme-3M 19.4 µM | 786-0 5.52 µM | A498 11.4 µM

Cc1ccc(/C=c2\cc3oc(=O)c4cccc(c4-3)c2=O)cc1
inactive: NCI-H522 38.1 µM | SW-620 > 100 µM | UACC-62 > 100 µM | OVCAR-4 > 100 µM | U-251 63.7 µM | K562 33.3 µM | MCF7 > 100 µM | DU-145 > 100 µM | RPMI-8226 31.2 µM | T47D > 100 µM | M14 > 100 µM | OVCAR-3 72.1 µM | IGROV-1 88.3 µM | ACHN > 100 µM | SNB-19 > 100 µM | Malme-3M > 100 µM | 786-0 > 100 µM | A498 > 100 µM

CO/C(N)=C(C#N)/N=C/c1cccnc1
inactive: NCI-H226 > 100 µM | KM12 > 100 µM | SW-620 > 100 µM | UACC-62 > 100 µM | OVCAR-4 > 100 µM | U-251 > 100 µM | K562 > 100 µM | MCF7 > 100 µM | DU-145 > 100 µM | RPMI-8226 > 100 µM | T47D > 100 µM | M14 > 100 µM | OVCAR-3 > 100 µM | IGROV-1 > 100 µM | Malme-3M > 100 µM | 786-0 > 100 µM | A498 > 100 µM

COc1ccc(NC(=S)C#N)cc1
inactive: NCI-H226 > 100 µM | KM12 > 100 µM | SW-620 > 100 µM | UACC-62 > 100 µM | U-251 > 100 µM | K562 49.3 µM | MCF7 > 100 µM | DU-145 > 100 µM | RPMI-8226 38.7 µM | T47D 85.7 µM | M14 > 100 µM | OVCAR-3 > 100 µM | ACHN > 100 µM | SNB-19 > 100 µM | 786-0 > 100 µM | A498 51.9 µM

O=C1CSCc2sccc21
inactive: NCI-H522 > 100 µM | NCI-H226 > 100 µM | KM12 > 100 µM | SW-620 > 100 µM | UACC-62 > 100 µM | OVCAR-4 > 100 µM | U-251 > 100 µM | K562 > 100 µM | MCF7 > 100 µM | DU-145 > 100 µM | T47D > 100 µM | M14 > 100 µM | OVCAR-3 > 100 µM | IGROV-1 > 100 µM | ACHN > 100 µM | SNB-19 > 100 µM | 786-0 > 100 µM | A498 > 100 µM

O=C1c2ccccc2CC12Cc1cc3c(cc1C2=O)CCC3 (stereo unspecified)
inactive: NCI-H522 > 100 µM | SW-620 > 100 µM | OVCAR-4 > 100 µM | U-251 > 100 µM | K562 > 100 µM | MCF7 > 100 µM | DU-145 > 100 µM | RPMI-8226 43.6 µM | T47D > 100 µM | M14 > 100 µM | OVCAR-3 > 100 µM | IGROV-1 > 100 µM | ACHN > 100 µM | SNB-19 > 100 µM | Malme-3M > 100 µM | 786-0 > 100 µM | A498 > 100 µM

O=C(CCl)N1CCN(c2ccccc2)CC1
inactive: KM12 19.3 µM | SW-620 23.4 µM | OVCAR-4 17.2 µM | U-251 19.5 µM | K562 36.4 µM | MCF7 19.5 µM | DU-145 > 100 µM | RPMI-8226 24.9 µM | T47D 21.9 µM | M14 17.7 µM | IGROV-1 24.1 µM | ACHN 24.4 µM | SNB-19 37.7 µM | Malme-3M 23.6 µM | 786-0 15.9 µM | A498 25.9 µM
